From patent US20240287154A1, “MC3R AGONIST PEPTIDES” (The Regents of the University of Michigan, priority 2021, published 2024)
Non-standard residues stand in square brackets, D forms with d. Residues, ends and D or L forms follow the SMILES beside them. Phe(4-Cl) = N[C@@H](Cc1ccc(Cl)cc1)C(=O)O; Nle = CCCC[C@H](N)C(=O)O; Aib = CC(C)(N)C(=O)O

Legend:
human MC3R = target: T1, human MC3R (Homo sapiens, UniProt P41968); assay: Intracellular cAMP levels in live cells, MC3R agonist activity; type: cell-based; details: cAMP split-luciferase reporter cell line stably expressing human MC3R; direct agonist effect, measurement window 1
T1 construct: expressed in transfected cells
T1 sequence (P41968 whole entry): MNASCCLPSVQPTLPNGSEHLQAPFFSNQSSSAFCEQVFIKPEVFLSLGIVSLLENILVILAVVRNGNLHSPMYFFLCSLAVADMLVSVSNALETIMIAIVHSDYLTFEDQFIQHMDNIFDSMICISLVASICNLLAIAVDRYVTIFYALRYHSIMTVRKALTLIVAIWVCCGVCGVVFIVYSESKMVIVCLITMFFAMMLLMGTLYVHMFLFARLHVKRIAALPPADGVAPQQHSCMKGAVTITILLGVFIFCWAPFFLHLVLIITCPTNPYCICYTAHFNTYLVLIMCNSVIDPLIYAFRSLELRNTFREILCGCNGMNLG
Method: The stable cell lines were grown and maintained in selection media consisting of Dulbecco's modified Eagle media (DMEM) with 4.5 g/l D-glucose, and 4 mM L-glutamine (Thermo Fisher Scientific, Waltham, MA), supplemented with 10% fetal bovine serum, 100 units/ml penicillin, 100 μg/ml streptomycin, 2.5 μg/ml amphotericin B, 200 μg/ml hygromycin B (for positive selection of the GScAMP22f luciferase reporter), and Geneticin™ (G418) 700 μg/ml (for MC3R or MC4R selection). Actual serum concentration during the assay is estimated to be about 1%. Cell line identity is routinely verified by qPCR and MC3R- and MC4R-specific oligonucleotides.
The assay for the determination of the CAMP response in live cells was described previously. […] Ccells were seeded at a density of 20,000 cells per well using 384-well poly-D lysine-coated, clear bottom, and black-wall assay plates (Corning Inc. Corning, NJ). Cells were allowed to attach to the plates for 18 to 24 h after which growth media was removed and 20 ul of 4% D-luciferin (Promega) in CO2 independent, serum-free medium (Thermo Fisher Scientific) was added to each well. […] Intracellular cAMP levels were measured using an FDSS 7000EX Functional Drug Screening System (Hamamatsu Photonics, Hamamatsu, Japan) in the Center for Chemical Genomics at the Life Sciences Institute. This instrument allowed the in-line addition of test-peptides and receptor agonists while simultaneously acquiring the luminescence signal from live cells. […] A submaximal forskolin (20 μM) concentration was also included to serve as a normalization reference to account for cell number variations and differences in assay transducer efficiency between cell lines.
With this set up it was possible to evaluate the direct agonist effect of the test-peptides on the MC3R and MC4R cell lines during measurement window 1, while the antagonist profile in the presence of EC90 α-MSH was determined on measurement window 2. […] EC50 or IC50 potency values were determined by non-linear regression by fitting the data to a sigmoid four-parameter variable slope model using the GraphPad Prism version 8.4 software package (San Diego CA).

human MC4R = human MC4R (Homo sapiens, UniProt P32245); assay: Intracellular cAMP levels in live cells, MC3R selectivity relative to MC4R; type: cell-based; details: cAMP assays in human MC3R and human MC4R stable cell lines
human MC4R, sequence (P32245 whole entry): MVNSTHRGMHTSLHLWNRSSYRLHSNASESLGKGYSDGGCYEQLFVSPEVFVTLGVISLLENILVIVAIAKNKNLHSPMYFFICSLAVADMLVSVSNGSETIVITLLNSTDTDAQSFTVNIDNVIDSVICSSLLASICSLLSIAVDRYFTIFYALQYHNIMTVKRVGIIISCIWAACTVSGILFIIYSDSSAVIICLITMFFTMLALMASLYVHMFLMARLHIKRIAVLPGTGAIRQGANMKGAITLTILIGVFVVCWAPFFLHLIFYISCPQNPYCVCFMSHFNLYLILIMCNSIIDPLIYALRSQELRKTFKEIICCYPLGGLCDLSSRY

in vitro = details: for half-life at 1 µM / remaining at 5 min, 1 µM / remaining at 0.5 h, 1 µM / remaining at 1 h, 1 µM / remaining at 2 h, 1 µM / remaining at 4 h, 1 µM / remaining at 0.25 h, 1 µM: mouse, plasma
Method: Pooled mouse plasma was prepared and stored at −80° C. prior to use. 396 μL mouse plasma was incubated at 37° C. for 5 minutes in 1.5 mL microcentrifuge tubes. 4 μL of 100 μM test or control compound/peptide was added to each tube and incubated for 0.5, 15, 30, 60, 120, or 240 minutes. An aliquot of 40 μL of each reaction was stopped by the addition of 4 volume of cold acetonitrile containing 200 ng/mL of Setmelanotide as an internal standard (IS). The incubation solution was centrifuged at 3500 rpm for 10 minutes to precipitate protein. The supernatant was used for LC/MS/MS analysis. The natural log peak area ratio (compound peak […] area/internal standard peak area) was plotted against time and the gradient of the line determined.

| Compound | EC50 (human MC3R) [nM] | MC3R selectivity (relative to MC4R) (human MC4R) | half-life at 1 µM (in vitro) [min] | remaining at 5 min, 1 µM (in vitro) [%] | remaining at 0.5 h, 1 µM (in vitro) [%] | remaining at 1 h, 1 µM (in vitro) [%] | remaining at 2 h, 1 µM (in vitro) [%] | remaining at 4 h, 1 µM (in vitro) [%] | Mouse Plasma Stability, time point 0 min (in vitro; pooled mouse plasma, 37° C.) [%] | Mouse Plasma Stability, time point 15 min (in vitro; pooled mouse plasma, 37° C., 15 min, in % (unit assumed)) | remaining at 0.25 h, 1 µM (in vitro) [%] |
| --- | --- | --- | --- | --- | --- | --- | --- | --- | --- | --- | --- |
| CCCC[C@H](NC(=O)[C@@H](NC(C)=O)C(C)C)C(=O)N[C@H](C)C(=O)N[C@@H](Cc1c[nH]cn1)C(=O)N[C@@H](Cc1ccccc1)C(=O)N[C@@H](CCCNC(=N)N)C(=O)N[C@H](Cc1c[nH]c2ccccc12)C(=O)N[C@@H](CC(=O)O)C(=O)N[C@@H](CCCNC(=N)N)C(=O)N[C@@H](Cc1ccccc1)C(=O)NCC(=O)O [CTX-1121, Val-Nle-D-Ala-His-Phe-Arg-D-Trp-Asp-Arg-Phe-Gly] (Ac-V[Nle][dA]HFR[dW]DRFG-OH) | 3.1 | 2,123 | 138 | 118 | 91.1 | 81.7 | 68.3 | 33.1 | 100 | 120.25 | – |
| CCCC[C@H](NC(=O)[C@@H](NC(=O)[C@H](N)Cc1ccc(O)cc1)C(C)C)C(=O)N[C@H](C)C(=O)N[C@@H](Cc1c[nH]cn1)C(=O)N[C@@H](Cc1ccccc1)C(=O)N[C@@H](CCCNC(=N)N)C(=O)N[C@H](Cc1c[nH]c2ccccc12)C(=O)N[C@@H](CC(=O)O)C(=O)N[C@@H](CCCNC(=N)N)C(=O)N[C@@H](Cc1ccccc1)C(=O)NCC(=O)O [CTX-1125, D-Tyr-Val-Nle-D-Ala-His-Phe-Arg-D-Trp-Asp-Arg-Phe-Gly] (H-[dY]V[Nle][dA]HFR[dW]DRFG-OH) | 1.7 | 747 | 141 | 93.2 | 105 | 103 | 79.2 | 28.8 | 100 | – | 105 |
| CCCC[C@H](NC(=O)[C@@H](NC(=O)[C@@H](N)Cc1ccc(O)cc1)C(C)C)C(=O)N[C@H](C)C(=O)N[C@@H](Cc1c[nH]cn1)C(=O)N[C@@H](Cc1ccccc1)C(=O)N[C@@H](CCCNC(=N)N)C(=O)N[C@H](Cc1c[nH]c2ccccc12)C(=O)N[C@@H](CC(=O)O)C(=O)N[C@H](CCCNC(=N)N)C(=O)N[C@@H](Cc1ccccc1)C(=O)NCC(=O)O [CTX-1126, Tyr-Val-Nle-D-Ala-His-Phe-Arg-D-Trp-Asp-D-Arg-Phe-Gly] (H-YV[Nle][dA]HFR[dW]D[dR]FG-OH) | 3 | 43 | 1.61 | 11.7 | 0.03 | – | – | – | 100 | – | 0.16 |
| CCCC[C@H](NC(=O)[C@@H](NC(=O)[C@@H](N)Cc1ccc(O)cc1)C(C)C)C(=O)N[C@H](C)C(=O)N[C@@H](Cc1c[nH]cn1)C(=O)N[C@@H](Cc1ccccc1)C(=O)N[C@@H](CCCNC(=N)N)C(=O)N[C@H](Cc1c[nH]c2ccccc12)C(=O)N[C@@H](CC(=O)O)C(=O)N[C@@H](CCCNC(=N)N)C(=O)N[C@H](Cc1ccccc1)C(=O)NCC(=O)O [CTX-1127, Tyr-Val-Nle-D-Ala-His-Phe-Arg-D-Trp-Asp-Arg-D-Phe-Gly] (H-YV[Nle][dA]HFR[dW]DR[dF]G-OH) | 2.5 | 95 | 1.28 | 6.71 | 0.27 | 0.04 | – | – | 100 | – | 0.25 |
| CCCC[C@H](NC(=O)[C@@H](NC(=O)[C@@H](N)Cc1ccc(O)cc1)C(C)C)C(=O)NC(C)(C)C(=O)N[C@@H](Cc1c[nH]cn1)C(=O)N[C@@H](Cc1ccccc1)C(=O)N[C@@H](CCCNC(=N)N)C(=O)N[C@H](Cc1c[nH]c2ccccc12)C(=O)N[C@@H](CC(=O)O)C(=O)N[C@@H](CCCNC(=N)N)C(=O)N[C@@H](Cc1ccccc1)C(=O)NCC(=O)O [CTX-1134, Tyr-Val-Nle-Aib-His-Phe-Arg-D-Trp-Asp-Arg-Phe-Gly] (H-YV[Nle][Aib]HFR[dW]DRFG-OH) | 2.5 | 566 | 2.77 | 28.6 | 0.14 | 0.02 | – | – | 100 | – | 2.97 |
| CCCC[C@H](NC(=O)[C@@H](NC(=O)[C@@H](N)Cc1ccc(O)cc1)C(C)C)C(=O)N[C@H](C)C(=O)N[C@@H](Cc1c[nH]cn1)C(=O)N[C@@H](Cc1ccc(Cl)cc1)C(=O)N[C@@H](CCCNC(=N)N)C(=O)N[C@H](Cc1c[nH]c2ccccc12)C(=O)N[C@@H](CC(=O)O)C(=O)N[C@@H](CCCNC(=N)N)C(=O)N[C@@H](Cc1ccccc1)C(=O)NCC(=O)O [CTX-2121, Tyr-Val-Nle-D-Ala-His-Phe(4-Cl)-Arg-D-Trp-Asp-Arg-Phe-Gly] (H-YV[Nle][dA]H[Phe(4-Cl)]R[dW]DRFG-OH) | 2.5 | 93 | – | – | – | – | – | – | – | – | – |
